Results: ChEMBL document CHEMBL1146582, “Phenolic constituents from Dalbergia cochinchinensis” (J Nat Prod, 2003)

How the values were obtained:
[1] = Inhibition of testerone 5-alpha-reductase at 25 ug/mL
[2] = Inhibition of testerone 5-alpha-reductase at 50 ug/mL
[3] = Inhibition of testerone 5-alpha-reductase at 100 ug/mL

Compound	inhibition [1] [%]	inhibition [2] [%]	inhibition [3] [%]
CC1(C)[C@@H](O)CC[C@]2(C)[C@H]3C(=O)C=C4[C@@H]5C[C@@](C)(C(=O)O)CC[C@]5(C)CC[C@@]4(C)[C@]3(C)CC[C@@H]12	31.7	64.7	87.1
COc1cc(O)ccc1C(=O)/C=C/c1ccccc1	19.5	20.7	22.8
COC1=CC(=O)c2cc(-c3ccccc3)c3cc(O)c(OC)cc3c2C1=O	42.8	52	65.6

Now from value to molecule:

inhibition [1] [%]	inhibition [2] [%]	inhibition [3] [%]	Compound
8.2	18.9	51.8	C=CC(c1ccccc1)c1cc(O)c(OC)cc1OC (stereo not drawn)
0.6	3.8	17	COC1=CC(=O)C(Cc2oc3cc(OC)c(O)cc3c2-c2ccccc2)=CC1(C/C=C/c1ccccc1)OC (stereo not drawn)
11.5	15.9	18.1	COc1cc2oc(Cc3cc(OC)c(OC)cc3OC/C=C/c3ccccc3)c(-c3ccccc3)c2cc1O
